Common to all, as to assay: NCI-60 cell line screen, 48 h
In test [1] the test system is NCI-H460 lung.
Test [2] relates to CCRF-CEM leukemia.
Test [3] concerns HT29 colon.
The test system of test [4] is MOLT-4 leukemia.
Test [5] concerns KM12 colon.
Test [6] deals with M14 melanoma.
Test [7] relates to PC-3 prostate.
The subject of test [8] is NCI-H522 lung.
Test [9] relates to BT-549 breast.

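Tested at 5 concentrations; 48 h exposure; 96-well plates; endpoints linearly interpolated, else capped at highest concentration. GI50: concentration for 50% inhibition of growth. Definition used: TGI = concentration required for complete inhibition of growth.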

`COC12CCC(=O)C=C1c1ccccc1N2C(C)=O` (stereo not given): the TGI in [1], in test [2], in test [3], in [4] and in test [5] was more than 100 µM each time.

As for `O=c1c2cc(F)ccc2sc2c(N3CCNCC3)nc3ccc(F)cc3c12`, the GI50 in [6] was 1.94 µM; in [1] it was 1.59 µM; in test [7] it was 1.7 µM; in test [2] it was 2.06 µM; in test [8], 1.7 µM; in test [3], 1.65 µM. The GI50 in [9] is 10.1 µM; in test [5], 1.79 µM. The TGI in test [6] was 3.66 µM; in test [1] it was 3.12 µM; in test [7] it was 3.3 µM; in test [2], 5.24 µM; in test [8] it was 3.39 µM; in [3], 3.22 µM. The values for the TGI in [9] and in [5] were 24.1 µM and 3.34 µM, respectively.

As to `COc1cccc(/C(C#N)=C/c2nc3c(N4CCOCC4)nc(Cl)nc3n2C)c1`, the GI50 is 1.06 µM in test [6]; 1.71 µM in test [1]; 1.06 µM in test [7]; 0.318 µM in test [2]; 0.567 µM in test [8]; 0.351 µM in test [3]. Also, the results for the GI50 in test [4], in test [9] and in [5] were 1.27 µM, 0.631 µM and 1.77 µM, respectively. The TGI stood at 2.38 µM in [6]; 3.65 µM in test [1]; 2.98 µM in test [7]; 0.934 µM in test [2]; 2.2 µM in [8]; 1.36 µM in test [3]. The results for the TGI in test [4], in test [9] and in [5] were 4.79 µM, 2.04 µM and 3.53 µM, respectively.

As to `COc1ccc(NC(=O)CC2SC(=Nc3ccccc3C)NC2=O)c([N+](=O)[O-])c1` (stereo not given), the TGI in test [6] was more than 100 µM; in test [1] it was more than 100 µM; in test [8] it was 80.5 µM; in test [3] it was more than 100 µM; in test [4], more than 100 µM; in test [5], more than 100 µM.

Consider `CCCNC(=O)C1C(=O)C(=O)N(CCC)C1=O` (stereo not given), for which the TGI in test [6], in [1], in test [2], in test [8], in test [3] and in test [4] was more than 100 µM in each case. Besides, in test [5], the TGI was more than 100 µM.

In the case of `O=C(/C=C/c1ccccc1)C(Br)C(Br)c1ccccc1` (stereo not given), the GI50 in test [6] was 2.02 µM; in test [1], 2.37 µM; in [7] it was 2.69 µM; in test [2] it was 0.308 µM; in [8], 1.04 µM; in test [3], 1.04 µM. Besides, the GI50 in test [4] is 0.602 µM; in test [9], 1.86 µM; in test [5], 2.07 µM. For the same molecule, the TGI in test [6] was 4.9 µM; in [1], 5.97 µM; in test [7] it was 8.69 µM; in test [2], 1.2 µM; in test [8] it was 2.31 µM; in [3], 2.48 µM. For the same molecule, the TGI was determined as 3 µM in test [4], 3.39 µM in test [9] and 4.38 µM in test [5].

For the molecule `CCNC(=O)COc1ccc(Br)cc1Br`, the TGI in test [6], in [1], in [2], in [8], in [3] and in test [4] was more than 100 µM in each case. The molecule further registered a TGI in [5] of more than 100 µM.

As to `O=c1/c(=C/c2ccccc2[N+](=O)[O-])sc2nc3ccccc3n12`, the TGI in [6] is more than 46.4 µM; in [1], more than 46.4 µM; in test [2], 22.7 µM; in test [8], more than 100 µM; in test [3], more than 46.4 µM; in test [4], more than 46.4 µM. The molecule also yielded a TGI in test [5] of more than 46.4 µM.

Take `C#Cc1cccc(N2C(=O)c3c(c(-c4ccccc4)c(-c4ccc(Cc5ccc(-c6c(-c7ccccc7)c7c(c(-c8ccccc8)c6-c6ccccc6)C(=O)N(c6cccc(C#C)c6)C7=O)cc5)cc4)c(-c4ccccc4)c3-c3ccccc3)C2=O)c1`: the TGI in test [6] was 41.5 µM; in [1], more than 100 µM; in [2], more than 100 µM; in [8] it was more than 100 µM; in [3] it was more than 100 µM; in test [4], more than 100 µM. Further, the TGI in test [5] is more than 100 µM.

For the molecule `CC1=CC(=O)CC2(C)CC[C@@H]3C[C@]12OC3(C)C` (stereo not given in full), the TGI in [6], in [1], in [2], in test [8], in [3] and in test [4] was more than 100 µM throughout. Besides, in test [5], the TGI is more than 100 µM.

Consider `COc1ccc2cc(/C=C/C(=O)c3ccc(Cl)cc3Cl)ccc2c1`, for which the GI50 was 30.5 µM in test [6]; 27.4 µM in test [1]; 44.7 µM in [7]; 21 µM in test [2]; 21.6 µM in test [8]; 11.3 µM in test [4]. The GI50 in test [9] was 33 µM; in [5], 29 µM. Besides, the TGI in [6] is more than 100 µM; in [1], more than 100 µM; in test [7], more than 100 µM; in [2], 57.2 µM; in [8] it was more than 100 µM; in test [4], 35.5 µM. Also, the TGI in test [9] was determined as 96.7 µM; in [5] it was 85.4 µM.

In the case of `O=C(CCC(=O)Nc1ccc(Cl)c(Cl)c1)CC(=O)c1ccc(Br)cc1`, the TGI in test [6], in [2], in [8], in [3], in [4] and in [5] was more than 100 µM each time.

Take `CC1=C[C@H]2c3c([nH]c4ccccc34)C(c3c[nH]c4ccccc34)[C@H]2CC1` (stereo not given in full): the TGI came out at 19.2 µM in [6]; 8.21 µM in test [1]; 10.9 µM in test [2]; 18.5 µM in [8]; 11.5 µM in [3]; 5.89 µM in test [4].

Consider `N#Cc1ccccc1C(Cl)(Cl)c1cnccn1`, for which the TGI in test [1] was more than 100 µM; in test [2] it was 50.3 µM; in test [8], 38.4 µM; in [3], more than 100 µM; in test [4], 69.7 µM; in test [5], more than 100 µM.

As for `CC(=O)N/N=C1\CC(C)(C)C2CCC1C2` (stereo not given), the TGI in test [6], in test [1], in test [2], in [8], in [4] and in [5] was more than 100 µM throughout.

Turning to `COC/C=C\COC`, the TGI in test [6], in test [1], in [2], in [3], in test [4] and in test [5] was more than 100 µM in each case.

With `N/N=C1\C(=O)N(C2CCCCCC2)C(=O)C1C(=O)NC1CCCCCC1` (stereo not given), the TGI was more than 100 µM in test [6]; more than 100 µM in test [1]; 80.8 µM in test [2]; 60 µM in test [8]; more than 100 µM in test [3]; 55.7 µM in test [4]. The same molecule registered a TGI in [5] of more than 100 µM.

With `COc1cc2c(c(OC)c1OC)-c1ncc3c(OC)c(OC)c(OC)cc3c1C2`, the GI50 was 39.8 µM in test [6]; 32.6 µM in [1]; 33.7 µM in test [7]; 19.3 µM in test [8]; 25.4 µM in [9]; 16.1 µM in test [5]. For the same molecule, the TGI in [6] was more than 100 µM; in test [1], more than 100 µM; in [7] it was more than 100 µM; in [8], 48.3 µM; in test [9], 55.2 µM; in [5] it was 40.4 µM.

As for `CCc1ccc(NC(=O)NC(=O)c2ccccc2[N+](=O)[O-])cc1Oc1ncc(Cl)cn1`, the TGI in [6] is more than 100 µM; in [1], 0.0508 µM; in [7], more than 100 µM; in [2], more than 100 µM; in [3] it was 0.854 µM; in test [4], more than 100 µM. Moreover, the TGI was found to be 35.7 µM in [9] and 0.728 µM in test [5].

Turning to `CC(Oc1ccc2c(-c3ccccc3)cc(=O)oc2c1)C(=O)O` (stereo not given), the TGI in test [6], in test [1], in [2], in test [8], in test [3] and in [4] was more than 100 µM throughout. Besides, in [5], the TGI is more than 100 µM.

As for `CCC(=O)c1c(NOC2OCC(OC(C)=O)C(OC(C)=O)C2OC(C)=O)nc(OC)n(C)c1=O` (stereo not given), the TGI in test [6], in test [1], in test [2], in test [3], in test [4] and in [5] was more than 100 µM throughout.

For the molecule `COc1ccc(NC(=O)/C(=C/c2ccccc2)C(C)=O)cc1`, the TGI amounted to 27.1 µM in test [6]; 62.5 µM in test [1]; 27.9 µM in test [2]; 4.6 µM in test [8]; 28.5 µM in [3]; 32.6 µM in [4]. In [5], this molecule gave a TGI of 27.5 µM.

Regarding `CCC1CC2C(=O)N(c3ccccc3)C(=O)C2c2[nH]c3ccccc3c21` (stereo not given), the TGI is more than 100 µM in [6]; 64.6 µM in [1]; more than 100 µM in [2]; more than 100 µM in test [3]; more than 100 µM in [4]; more than 100 µM in test [5].

Take `CC1/C=C/[C@@]2(C)CCC(C(C)(C)O)C2C(O)C[C@](C)(O)/C=C/C1` (stereo not given in full): the TGI in test [6], in test [1], in test [2], in [3], in test [4] and in [5] was more than 100 µM each time.

Take `COc1ccc(OC)c(NC(=O)CCC/C(CC(=O)c2ccc(O)c(OC)c2)=N\Nc2nnc(C)n2N)c1`: the TGI in [6], in test [1], in test [2], in test [8], in [3] and in test [4] was more than 100 µM throughout. Besides, the TGI in [5] is more than 100 µM.

For `CC(C)(C)c1cc(C(O)(C(F)(F)F)C(F)(F)F)c2c(c1)C(C(F)(F)F)(C(F)(F)F)OC(C)(C(C)(C)C)N2` (stereo not given), the TGI was 13.6 µM in [6]; 9.25 µM in test [1]; 5.24 µM in test [8]; 22.7 µM in test [3]; 7.96 µM in test [4]; more than 100 µM in [5].

With `Nc1ccccc1C#C/C=C\C#Cc1ccc(OCCCNC(=O)c2cc3ccccc3[nH]2)cc1`, the GI50 was 9.83 µM in test [1]; more than 100 µM in [8]; 32 µM in [3]; 49.4 µM in [4]; 9.23 µM in test [9]; 5.98 µM in [5]. In addition, the TGI in [1], in test [8], in [3], in [4], in test [9] and in test [5] was more than 100 µM in each case.

Turning to `Cc1ccccc1NC(=O)c1cc(-c2ccc([N+](=O)[O-])cc2)nc(=S)[nH]1`, the TGI in [6], in [1], in test [3], in test [4] and in test [5] was more than 100 µM throughout.

Turning to `Cc1ccc(NC(=O)CCc2nc(N)nc(N)c2-c2ccccc2)cc1C`, the TGI in test [6], in test [1], in test [2], in test [8], in [3] and in [4] was more than 100 µM each time. Further, the TGI in test [5] is more than 100 µM.

Consider `C=C(CC(NC(=O)c1ccc(C(CC)Cc2cnc3nc(N)nc(N)c3n2)cc1)C(=O)O)C(=O)O` (stereo not given), for which the TGI in [6], in [1], in test [2], in test [3] and in [4] was more than 100 µM throughout.
